The target in test [1] is T1, NUAK family SNF1-like kinase 2 (Homo sapiens) (UniProt Q9H093).
T1 sequence (whole entry): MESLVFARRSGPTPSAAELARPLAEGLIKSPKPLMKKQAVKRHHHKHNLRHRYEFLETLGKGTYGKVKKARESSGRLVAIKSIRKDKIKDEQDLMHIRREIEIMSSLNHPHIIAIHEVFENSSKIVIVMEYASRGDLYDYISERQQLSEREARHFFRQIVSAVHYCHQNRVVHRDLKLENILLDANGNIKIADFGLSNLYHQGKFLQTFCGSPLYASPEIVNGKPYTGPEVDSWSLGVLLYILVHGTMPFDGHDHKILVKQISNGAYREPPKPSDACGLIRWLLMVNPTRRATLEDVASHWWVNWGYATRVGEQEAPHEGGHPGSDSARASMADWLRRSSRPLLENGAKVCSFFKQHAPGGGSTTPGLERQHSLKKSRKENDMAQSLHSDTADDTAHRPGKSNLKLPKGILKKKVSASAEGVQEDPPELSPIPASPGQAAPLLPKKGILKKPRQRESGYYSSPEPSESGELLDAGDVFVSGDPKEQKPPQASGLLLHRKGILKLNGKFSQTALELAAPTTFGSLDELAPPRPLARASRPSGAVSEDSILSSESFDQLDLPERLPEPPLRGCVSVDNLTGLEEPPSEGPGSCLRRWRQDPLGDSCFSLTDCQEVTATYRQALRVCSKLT
In words: Selectivity interaction (KinomeScan (DiscoverX)) EUB0001049a NUAK2. The note with it: at 1 µM.

Test [2] deals with T2, Myotonin-protein kinase (Homo sapiens) (UniProt Q09013).
T2 sequence (whole entry): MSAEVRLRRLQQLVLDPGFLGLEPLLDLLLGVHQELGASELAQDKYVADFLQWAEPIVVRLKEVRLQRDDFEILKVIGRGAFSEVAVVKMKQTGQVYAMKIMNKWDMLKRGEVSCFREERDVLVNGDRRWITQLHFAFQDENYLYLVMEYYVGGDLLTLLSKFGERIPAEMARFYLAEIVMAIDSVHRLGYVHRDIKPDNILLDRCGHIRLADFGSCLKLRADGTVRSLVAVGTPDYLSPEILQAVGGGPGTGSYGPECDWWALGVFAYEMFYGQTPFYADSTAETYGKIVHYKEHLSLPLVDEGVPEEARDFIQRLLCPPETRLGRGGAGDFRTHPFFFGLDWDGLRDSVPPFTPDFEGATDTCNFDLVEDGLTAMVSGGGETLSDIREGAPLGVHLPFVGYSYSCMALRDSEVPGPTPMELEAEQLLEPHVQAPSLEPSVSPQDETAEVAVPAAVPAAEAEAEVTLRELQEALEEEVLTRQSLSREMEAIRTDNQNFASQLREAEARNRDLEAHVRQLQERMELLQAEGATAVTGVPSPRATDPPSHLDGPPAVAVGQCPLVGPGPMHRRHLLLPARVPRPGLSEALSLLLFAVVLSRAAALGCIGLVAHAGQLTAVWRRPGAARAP
Briefly: Selectivity interaction (KinomeScan (DiscoverX)) EUB0000045b DMPK.

The target in test [3] is Casein kinase I isoform gamma-2 (Homo sapiens) (UniProt P78368). In words: Selectivity interaction (Kinase panel (Z-LYTE Assay)) EUB0001632a CSNK1G2. The following applies: at 10 µM.
Sequence of Casein kinase I isoform gamma-2 (Homo sapiens) (P78368 whole entry, looked up, canonical isoform): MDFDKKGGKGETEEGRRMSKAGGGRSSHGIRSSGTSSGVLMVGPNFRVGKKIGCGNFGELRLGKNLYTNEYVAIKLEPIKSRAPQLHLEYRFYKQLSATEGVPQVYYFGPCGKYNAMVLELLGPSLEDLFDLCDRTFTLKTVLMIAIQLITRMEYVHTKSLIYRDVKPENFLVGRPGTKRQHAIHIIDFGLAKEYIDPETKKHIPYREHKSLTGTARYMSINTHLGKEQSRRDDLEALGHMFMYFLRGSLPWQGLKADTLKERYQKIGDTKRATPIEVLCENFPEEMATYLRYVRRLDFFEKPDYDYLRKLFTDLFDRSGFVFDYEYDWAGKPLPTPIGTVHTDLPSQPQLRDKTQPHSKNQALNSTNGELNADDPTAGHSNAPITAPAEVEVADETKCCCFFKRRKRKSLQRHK
Test [4] addresses T3, Mitogen-activated protein kinase kinase kinase 19 (Homo sapiens) (UniProt Q56UN5).
T3 sequence (whole entry): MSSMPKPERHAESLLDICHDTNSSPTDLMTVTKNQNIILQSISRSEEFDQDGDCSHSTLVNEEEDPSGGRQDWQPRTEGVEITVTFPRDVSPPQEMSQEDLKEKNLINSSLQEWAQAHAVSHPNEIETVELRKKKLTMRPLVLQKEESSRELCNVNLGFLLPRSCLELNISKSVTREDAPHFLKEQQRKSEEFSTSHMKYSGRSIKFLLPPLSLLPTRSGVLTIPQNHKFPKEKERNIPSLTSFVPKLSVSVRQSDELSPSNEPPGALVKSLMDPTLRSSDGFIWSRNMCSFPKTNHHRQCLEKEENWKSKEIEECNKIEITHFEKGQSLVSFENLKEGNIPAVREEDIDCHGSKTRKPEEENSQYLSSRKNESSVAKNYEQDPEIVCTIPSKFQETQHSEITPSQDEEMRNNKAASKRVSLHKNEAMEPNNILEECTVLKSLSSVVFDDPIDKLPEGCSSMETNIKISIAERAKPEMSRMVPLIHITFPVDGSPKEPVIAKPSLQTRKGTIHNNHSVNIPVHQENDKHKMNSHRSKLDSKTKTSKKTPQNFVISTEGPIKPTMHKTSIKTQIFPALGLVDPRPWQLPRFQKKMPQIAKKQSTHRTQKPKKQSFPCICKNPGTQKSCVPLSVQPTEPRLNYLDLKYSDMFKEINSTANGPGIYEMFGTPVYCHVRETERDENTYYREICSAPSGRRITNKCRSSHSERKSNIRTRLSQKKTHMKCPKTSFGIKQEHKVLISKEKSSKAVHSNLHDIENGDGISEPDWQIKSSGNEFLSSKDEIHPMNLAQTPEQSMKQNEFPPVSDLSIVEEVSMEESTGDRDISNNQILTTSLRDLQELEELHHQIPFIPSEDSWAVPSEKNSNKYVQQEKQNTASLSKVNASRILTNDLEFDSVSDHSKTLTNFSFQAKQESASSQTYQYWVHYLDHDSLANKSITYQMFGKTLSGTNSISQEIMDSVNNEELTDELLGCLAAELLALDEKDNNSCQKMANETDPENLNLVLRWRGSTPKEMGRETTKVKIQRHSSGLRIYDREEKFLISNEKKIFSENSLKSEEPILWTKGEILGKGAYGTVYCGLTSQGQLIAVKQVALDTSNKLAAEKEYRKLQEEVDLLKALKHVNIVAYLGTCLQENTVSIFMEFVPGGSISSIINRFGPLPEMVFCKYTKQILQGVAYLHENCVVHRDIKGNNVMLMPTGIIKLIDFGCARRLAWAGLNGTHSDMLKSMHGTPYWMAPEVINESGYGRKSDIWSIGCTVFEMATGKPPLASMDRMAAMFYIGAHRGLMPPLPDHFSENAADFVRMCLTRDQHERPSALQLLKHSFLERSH
In words: Selectivity interaction (Kinase panel (Z-LYTE Assay)) EUB0001632a MAP3K19. The following applies: at 10 µM.

Test [5] deals with Ribosomal protein S6 kinase alpha-1 (Homo sapiens, UniProt Q15418). Briefly: Selectivity interaction (KinomeScan (DiscoverX)) EUB0000229b RPS6KA1. The note with it: at 10 µM.
Sequence of Ribosomal protein S6 kinase alpha-1 (Q15418 whole entry): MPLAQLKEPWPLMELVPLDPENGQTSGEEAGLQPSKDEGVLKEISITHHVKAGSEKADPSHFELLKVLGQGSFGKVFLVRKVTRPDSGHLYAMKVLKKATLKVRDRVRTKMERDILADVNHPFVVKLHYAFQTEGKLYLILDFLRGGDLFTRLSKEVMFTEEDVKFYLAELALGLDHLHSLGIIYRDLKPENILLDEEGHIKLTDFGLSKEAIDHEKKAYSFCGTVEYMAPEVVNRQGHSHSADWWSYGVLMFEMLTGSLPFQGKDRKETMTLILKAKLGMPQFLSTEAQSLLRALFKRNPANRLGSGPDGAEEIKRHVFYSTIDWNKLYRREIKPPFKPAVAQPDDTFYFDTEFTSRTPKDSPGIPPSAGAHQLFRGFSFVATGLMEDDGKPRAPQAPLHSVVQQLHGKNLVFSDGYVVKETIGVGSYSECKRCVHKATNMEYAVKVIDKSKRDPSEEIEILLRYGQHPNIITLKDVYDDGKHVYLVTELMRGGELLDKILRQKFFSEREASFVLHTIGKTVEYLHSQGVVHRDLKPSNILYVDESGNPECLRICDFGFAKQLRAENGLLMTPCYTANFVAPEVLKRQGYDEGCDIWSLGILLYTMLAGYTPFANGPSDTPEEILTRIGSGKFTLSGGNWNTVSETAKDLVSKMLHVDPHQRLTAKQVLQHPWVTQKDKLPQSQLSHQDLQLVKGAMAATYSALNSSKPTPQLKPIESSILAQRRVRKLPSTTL
Test [6] deals with Cyclin-dependent kinase 6 (Homo sapiens) (UniProt Q00534). In words: Selectivity interaction (Kinase panel (KiNativ target engagement assay in Jurkat cells)) EUB0001635a CDK6. The following applies: Selectivity number of off-targets 0.0, Selectivity number of targets 233.0, Source Knowledge https://www.sciencedirect.com/science/article/pii/S2451945619300674?via%3Dihub, at 1 µM. The class given is cell-based.
Sequence of Cyclin-dependent kinase 6 (Homo sapiens) (Q00534 whole entry): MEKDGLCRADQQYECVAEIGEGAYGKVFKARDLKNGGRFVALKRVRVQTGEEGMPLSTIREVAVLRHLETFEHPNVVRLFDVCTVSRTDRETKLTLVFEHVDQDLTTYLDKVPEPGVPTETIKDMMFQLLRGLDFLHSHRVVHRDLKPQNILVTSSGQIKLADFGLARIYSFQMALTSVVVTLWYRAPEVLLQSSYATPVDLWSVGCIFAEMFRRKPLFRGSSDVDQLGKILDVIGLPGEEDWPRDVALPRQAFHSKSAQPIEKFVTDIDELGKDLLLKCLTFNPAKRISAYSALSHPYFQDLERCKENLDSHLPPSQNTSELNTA

As for `COc1cc(Nc2nc(C)cc(-c3cnn4nc(OC)ccc34)n2)cc(C(F)(F)F)c1`, the % of control in test [1] came out at 93%.
For the compound `C=CC(=O)Nc1cc(-n2c(=O)ccc3cnc4ccc(-c5ccc(NS(C)(=O)=O)cc5)cc4c32)ccc1C`, the values for the % of control in test [2] (at 1 µM) and in test [2] (at 10 µM) were 91% and 100%, respectively.
On to `Cn1cc(-n2cnc3c(NCc4nc5cc(Cl)c(Cl)cc5[nH]4)nc(N4CCOCC4)nc32)cn1`, for which the % of control is 13.1% in test [3] and -3.06% in test [4].
In test [5], `COc1cc(N(C)c2ccnc3ccc(C(F)(F)F)cc23)cc(OC)c1OC` had a % binding of 100%.
With `C=CC(=O)Nc1ccc(C(=O)Nc2[nH]nc3c2CN(C(=O)N[C@H](CN(C)C)c2ccccc2)C3(C)C)cc1`, in test [6], the % of engagement is -8.6%.

The values are drawn from ChEMBL document CHEMBL5465560, “Selectivity Literature for EUbOPEN Chemogenomic Library” (2024).
